Measurements: patent publication US9758524B2, “4-imidazopyridazin-1-yl-benzamides as Btk inhibitors” (Merck Sharp & Dohme B.V., priority 2011, dated 2017)
Read-outs that look alike come from different tables or passages of the source.

Assays:
Src enzyme = Src enzyme (Homo sapiens (Human), UniProt P12931); assay: Src enzyme activity (IMAP fluorescence polarization assay); conditions: read-out: EC50 Src activity values; IMAP, 60 min pre-incubation, 4 μM ATP
Lck enzyme = Lck enzyme (Homo sapiens (Human), UniProt P06239); assay: Lck enzyme activity (IMAP fluorescence polarization assay)
Lyn enzyme = Lyn enzyme (Homo sapiens (Human), UniProt P07948); assay: Lyn enzyme activity (IMAP fluorescence polarization assay); conditions: read-out: EC50 Lyn activity values, 60 min pre-incubation, 2 μM ATP, bin bound in μM
Btk enzyme (His-Btk) = Btk enzyme (His-Btk) (Homo sapiens (Human), UniProt Q06187); assay: Btk enzyme activity (IMAP fluorescence polarization assay)
FynT enzyme = FynT enzyme (Homo sapiens (Human), UniProt P06241); assay: FynT enzyme activity (IMAP fluorescence polarization assay); assay type: biochemical; conditions: 60 min pre-incubation, 0.2 μM ATP
Procedure, shortened: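 Human FynT pre-incubated with compounds 60 min at room temperature, then reacted 2 h at room temperature with fluorescein-labelled p34cdc2 peptide (100 nM final). Stopped with IMAP binding solution; fluorescence polarization read after 60 min. Activity as % of ±ATP control difference; EC50 by curve fitting.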

[1] = read-out: EC50 Lck activity values, IMAP, 60 min pre-incubation, 6 μM ATP, bin bound in μM
[2] = IMAP, 60 min pre-incubation, 5 μM ATP, bin bound in μM
[3] = IMAP, 60 min pre-incubation, 6 μM ATP, bin bound in μM
[4] = read-out: EC50 Btk activity values, IMAP, 60 min pre-incubation, 5 μM ATP, bin bound in nM
[5] = IMAP, 60 min pre-incubation, 5 μM ATP, bin bound in nM

Sequence of Src enzyme (P12931 whole entry, looked up): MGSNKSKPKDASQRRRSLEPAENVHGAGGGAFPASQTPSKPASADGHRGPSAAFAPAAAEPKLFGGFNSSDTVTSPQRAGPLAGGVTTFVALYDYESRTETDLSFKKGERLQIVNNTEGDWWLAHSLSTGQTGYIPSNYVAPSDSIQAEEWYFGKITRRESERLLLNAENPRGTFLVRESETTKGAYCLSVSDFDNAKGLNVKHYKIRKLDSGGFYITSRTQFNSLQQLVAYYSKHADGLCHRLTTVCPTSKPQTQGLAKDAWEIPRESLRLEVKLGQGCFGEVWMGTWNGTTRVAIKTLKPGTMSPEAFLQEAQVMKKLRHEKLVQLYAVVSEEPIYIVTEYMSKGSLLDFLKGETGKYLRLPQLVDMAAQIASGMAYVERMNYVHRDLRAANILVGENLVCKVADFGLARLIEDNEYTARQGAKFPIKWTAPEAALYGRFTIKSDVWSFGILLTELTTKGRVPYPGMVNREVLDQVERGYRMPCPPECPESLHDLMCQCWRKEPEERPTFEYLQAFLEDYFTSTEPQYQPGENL
Sequence of FynT enzyme (P06241 other isoform, or with tags, fused parts or gaps): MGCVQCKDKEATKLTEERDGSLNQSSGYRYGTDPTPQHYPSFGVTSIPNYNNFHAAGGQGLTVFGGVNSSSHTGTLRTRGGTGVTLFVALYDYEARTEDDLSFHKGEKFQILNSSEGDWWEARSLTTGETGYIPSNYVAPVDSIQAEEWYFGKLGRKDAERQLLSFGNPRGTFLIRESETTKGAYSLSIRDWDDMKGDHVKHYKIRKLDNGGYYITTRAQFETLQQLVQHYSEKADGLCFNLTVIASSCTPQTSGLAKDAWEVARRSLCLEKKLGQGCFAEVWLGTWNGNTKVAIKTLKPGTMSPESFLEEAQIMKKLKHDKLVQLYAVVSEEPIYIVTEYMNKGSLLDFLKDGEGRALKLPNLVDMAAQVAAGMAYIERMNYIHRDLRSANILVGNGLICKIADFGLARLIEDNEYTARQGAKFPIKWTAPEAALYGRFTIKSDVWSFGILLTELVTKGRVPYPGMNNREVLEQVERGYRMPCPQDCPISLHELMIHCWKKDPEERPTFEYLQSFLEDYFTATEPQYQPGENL
Sequence of Lck enzyme (P06239 whole entry): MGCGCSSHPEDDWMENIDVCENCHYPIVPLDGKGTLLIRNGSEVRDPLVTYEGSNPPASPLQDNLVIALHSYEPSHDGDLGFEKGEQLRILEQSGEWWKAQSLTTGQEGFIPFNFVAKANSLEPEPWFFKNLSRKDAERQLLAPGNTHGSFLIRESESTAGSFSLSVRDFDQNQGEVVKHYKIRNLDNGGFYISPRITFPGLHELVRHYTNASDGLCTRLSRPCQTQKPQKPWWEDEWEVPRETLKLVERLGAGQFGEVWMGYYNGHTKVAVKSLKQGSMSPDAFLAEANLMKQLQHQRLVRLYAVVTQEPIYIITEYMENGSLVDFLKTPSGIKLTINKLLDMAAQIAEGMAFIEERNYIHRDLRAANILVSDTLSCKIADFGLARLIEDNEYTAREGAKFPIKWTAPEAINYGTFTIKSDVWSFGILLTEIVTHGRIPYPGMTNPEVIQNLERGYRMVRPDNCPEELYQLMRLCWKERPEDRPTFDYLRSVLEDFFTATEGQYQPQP
Sequence of Btk enzyme (His-Btk) (Q06187 whole entry): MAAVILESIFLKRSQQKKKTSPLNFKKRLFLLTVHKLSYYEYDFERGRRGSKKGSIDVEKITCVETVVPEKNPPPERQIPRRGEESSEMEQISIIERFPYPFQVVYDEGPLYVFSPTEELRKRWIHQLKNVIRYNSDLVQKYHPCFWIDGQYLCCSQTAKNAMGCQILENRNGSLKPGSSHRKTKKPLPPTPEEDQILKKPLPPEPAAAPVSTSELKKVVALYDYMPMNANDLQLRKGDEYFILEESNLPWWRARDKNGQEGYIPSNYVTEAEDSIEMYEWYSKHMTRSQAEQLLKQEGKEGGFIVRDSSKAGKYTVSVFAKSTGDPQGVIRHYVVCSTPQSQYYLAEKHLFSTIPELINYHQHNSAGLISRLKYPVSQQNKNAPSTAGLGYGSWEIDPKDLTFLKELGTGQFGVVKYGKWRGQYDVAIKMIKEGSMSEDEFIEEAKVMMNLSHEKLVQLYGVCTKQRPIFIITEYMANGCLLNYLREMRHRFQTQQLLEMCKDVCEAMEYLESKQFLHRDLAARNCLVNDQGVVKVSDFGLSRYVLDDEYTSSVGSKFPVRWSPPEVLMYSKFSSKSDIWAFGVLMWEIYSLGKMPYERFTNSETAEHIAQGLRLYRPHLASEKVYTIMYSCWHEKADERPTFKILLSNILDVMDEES
Sequence of Lyn enzyme (P07948 whole entry): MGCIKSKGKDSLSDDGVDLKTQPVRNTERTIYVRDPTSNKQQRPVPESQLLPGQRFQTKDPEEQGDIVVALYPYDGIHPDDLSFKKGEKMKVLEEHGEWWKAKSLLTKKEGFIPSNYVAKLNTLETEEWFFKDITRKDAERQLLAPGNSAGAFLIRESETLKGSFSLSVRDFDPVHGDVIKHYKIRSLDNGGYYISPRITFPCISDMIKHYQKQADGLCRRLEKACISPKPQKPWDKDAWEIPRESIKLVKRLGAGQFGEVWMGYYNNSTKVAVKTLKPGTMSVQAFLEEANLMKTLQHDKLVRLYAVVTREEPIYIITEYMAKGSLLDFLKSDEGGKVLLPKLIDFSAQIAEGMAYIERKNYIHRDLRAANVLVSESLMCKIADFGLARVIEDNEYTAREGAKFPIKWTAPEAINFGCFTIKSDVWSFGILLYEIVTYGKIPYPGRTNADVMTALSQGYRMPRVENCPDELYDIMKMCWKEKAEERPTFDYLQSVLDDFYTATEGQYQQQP

| SMILES | EC50 (Src enzyme) [µM] | EC50 (Lck enzyme; [1]) [µM] | EC50 (Lyn enzyme) [µM] | EC50 (Btk enzyme (His-Btk)) [nM] | EC50 Btk activity values (Btk enzyme (His-Btk); [2]) [µM] | EC50 (FynT enzyme) [µM] | EC50 (Lck enzyme) [µM] | EC50 Lck activity values (Lck enzyme; [3]) [µM] | EC50 (Btk enzyme (His-Btk); [4]) [nM] | EC50 Btk activity values (Btk enzyme (His-Btk); [5]) [µM] |
| --- | --- | --- | --- | --- | --- | --- | --- | --- | --- | --- |
| CC#CC(=O)N1CCC[C@H]1c1nc(-c2ccc(C(=O)Nc3cc(F)ccn3)cc2)c2c(N)nccn12 [Example 106, (S)-4-(8-amino-3-(1-but-2-ynoylpyrrolidin-2-yl)imidazo[1,5-a]pyrazin-1-yl)-N-(4-fluoropyridin-2-yl)benzamide] | ≥ 1 | ≥ 1 | ≥ 1 | 10 to 100 | – | ≥ 1 | – | – | – | <0.1 |
| CC#CC(=O)N1CCCC[C@H]1c1nc(-c2ccc(C(=O)Nc3ncc(CC)s3)cc2)c2c(N)nccn12 [Example 116, (S)-4-(8-amino-3-(1-but-2-ynoylpiperidin-2-yl)imidazo[1,5-a]pyrazin-1-yl)-N-(5-ethylthiazol-2-yl)benzamide] | ≥ 1 | ≥ 1 | ≥ 1 | – | – | ≥ 1 | – | – | < 10 | – |
| COC/C=C/C(=O)N1CCCC[C@H]1c1nc(-c2ccc(C(=O)Nc3ccccn3)cc2)c2c(N)nccn12 [Example 16, (S,E)-4-(8-Amino-3-(1-(4-methoxybut-2-enoyl)piperidin-2-yl)imidazo[1,5-a]pyrazin-1-yl)-N-(pyridin-2-yl)benzamide] | ≥ 1 | ≥ 1 | ≥ 1 | – | – | ≥ 1 | – | – | < 10 | – |
| COC/C=C/C(=O)NCc1nc(-c2ccc(C(=O)Nc3ccccn3)cc2)c2c(N)nccn12 [Example 95, (E)-4-(8-amino-3-((4-methoxybut-2-enamido)methyl)imidazo[1,5-a]pyrazin-1-yl)-N-(pyridin-2-yl)benzamide] | ≥ 1 | ≥ 1 | ≥ 1 | 10 to 100 | – | ≥ 1 | – | – | – | <0.1 |
| C=CC(=O)N[C@@H](C)c1nc(-c2ccc(C(=O)Nc3ccccn3)cc2)c2c(N)nccn12 [Example 100, (S)-4-(3-(1-acrylamidoethyl)-8-aminoimidazo[1,5-a]pyrazin-1-yl)-N-(pyridin-2-yl)benzamide] | ≥ 1 | ≥ 1 | ≥ 1 | – | – | ≥ 1 | – | – | < 10 | – |
| CCc1ccnc(NC(=O)c2ccc(-c3nc([C@@H]4CCCN4C(=O)/C=C/COC)n4ccnc(N)c34)cc2)c1 [Example 11, (S,E)-4-(8-Amino-3-(1-(4-methoxybut-2-enoyl)pyrrolidin-2-yl)imidazo[1,5-a]pyrazin-1-yl)-N-(4-ethylpyridin-2-yl)benzamide] | ≥ 1 | ≥ 1 | ≥ 1 | 10 to 100 | – | ≥ 1 | – | – | – | <0.1 |
| Nc1nccn2c([C@@H]3CCCN3C(=O)c3ccnc(Cl)n3)nc(-c3ccc(C(=O)Nc4ccccn4)c(F)c3)c12 [Example 84, (S)-4-(8-amino-3-(1-(2-chloropyrimidine-4-carbonyl)pyrrolidin-2-yl)imidazo[1,5-a]pyrazin-1-yl)-2-fluoro-N-(pyridin-2-yl)benzamide] | ≥ 1 | ≥ 1 | ≥ 1 | 10 to 100 | – | ≥ 1 | – | – | – | <0.1 |
| Cc1ccnc(NC(=O)c2ccc(-c3nc([C@@H]4CCCN4C(=O)/C=C/CN(C)C)n4ccnc(N)c34)cc2)c1 [Example 59, (S,E)-4-(8-amino-3-(1-(4-(dimethylamino)but-2-enoyl)pyrrolidin-2-yl)imidazo[1,5-a]pyrazin-1-yl)-N-(4-methylpyridin-2-yl)benzamide] | ≥ 1 | ≥ 1 | ≥ 1 | 10 to 100 | – | ≥ 1 | – | – | – | <0.1 |
| COC/C=C/C(=O)N1CCC[C@H]1c1nc(-c2ccc(C(=O)Nc3ccccn3)cc2)c2c(N)nccn12 [Example 4, (S,E)-4-(8-amino-3-(1-(4-methoxybut-2-enoyl)pyrrolidin-2-yl)imidazo[1,5-a]pyrazin-1-yl)-N-(pyridin-2-yl)benzamide] | ≥ 1 | ≥ 1 | ≥ 1 | 10 to 100 | – | ≥ 1 | – | – | – | <0.1 |

Now from value to compound:

| EC50 (Src enzyme) [µM] | EC50 (Lck enzyme; [1]) [µM] | EC50 (Lyn enzyme) [µM] | EC50 (Btk enzyme (His-Btk)) [nM] | EC50 Btk activity values (Btk enzyme (His-Btk); [2]) [µM] | EC50 (FynT enzyme) [µM] | EC50 (Lck enzyme) [µM] | EC50 Lck activity values (Lck enzyme; [3]) [µM] | EC50 (Btk enzyme (His-Btk); [4]) [nM] | EC50 Btk activity values (Btk enzyme (His-Btk); [5]) [µM] | SMILES |
| --- | --- | --- | --- | --- | --- | --- | --- | --- | --- | --- |
| ≥ 1 | ≥ 1 | ≥ 1 | 100 to 1000 | <1 | ≥ 1 | – | – | – | – | COC/C=C/C(=O)N1CCCC[C@H]1c1nc(-c2ccc(C(=O)Nc3ncccn3)cc2)c2c(N)nccn12 [Example 55, (S,E)-4-(8-amino-3-(1-(4-methoxybut-2-enoyl)piperidin-2-yl)imidazo[1,5-a]pyrazin-1-yl)-N-(pyrimidin-2-yl)benzamide] |
| ≥ 1 | – | ≥ 1 | – | – | ≥ 1 | 0.1 to 1 | <1 | < 10 | – | C=CC(=O)N1CCC[C@H]1c1nc(-c2ccc(C(=O)Nc3cc(C#N)ccn3)cc2)c2c(N)nccn12 [Example 122, (S)-4-(3-(1-acryloylpyrrolidin-2-yl)-8-aminoimidazo[1,5-a]pyrazin-1-yl)-N-(4-cyanopyridin-2-yl)benzamide] |
| ≥ 1 | ≥ 1 | ≥ 1 | 10 to 100 | – | ≥ 1 | – | – | – | <0.1 | CN(C)CC#CC(=O)N1CCC[C@H]1c1nc(-c2ccc(C(=O)Nc3ccccn3)cc2)c2c(N)nccn12 [Example 40, (S)-4-(8-Amino-3-(1-(4-(dimethylamino)but-2-ynoyl)pyrrolidin-2-yl)imidazo[1,5-a]pyrazin-1-yl)-N-(pyridin-2-yl)benzamide] |
| ≥ 1 | – | ≥ 1 | – | – | ≥ 1 | 0.1 to 1 | <1 | < 10 | – | C=CC(=O)N1CCC[C@H]1c1nc(-c2ccc(C(=O)Nc3cc(C(F)(F)F)ccn3)cc2)c2c(N)nccn12 [Example 62, (S)-4-(3-(1-acryloylpyrrolidin-2-yl)-8-aminoimidazo[1,5-a]pyrazin-1-yl)-N-(4-(trifluoromethyl)pyridin-2-yl)benzamide] |
| ≥ 1 | ≥ 1 | ≥ 1 | 100 to 1000 | <1 | ≥ 1 | – | – | – | – | COC/C=C/C(=O)N1CCCC[C@H]1c1nc(-c2ccc(C(=O)Nc3cccnn3)cc2)c2c(N)nccn12 [Example 72, (S,E)-4-(8-amino-3-(1-(4-methoxybut-2-enoyl)piperidin-2-yl)imidazo[1,5-a]pyrazin-1-yl)-N-(pyridazin-3-yl)benzamide] |
| ≥ 1 | ≥ 1 | ≥ 1 | 10 to 100 | – | ≥ 1 | – | – | – | <0.1 | COC/C=C/C(=O)N1CCC[C@H]1c1nc(-c2ccc(C(=O)Nc3cc(C)ccn3)cc2)c2c(N)nccn12 [Example 57, (S,E)-4-(8-amino-3-(1-(4-methoxybut-2-enoyl)pyrrolidin-2-yl)imidazo[1,5-a]pyrazin-1-yl)-N-(4-methylpyridin-2-yl)benzamide] |
| ≥ 1 | ≥ 1 | ≥ 1 | – | – | ≥ 1 | – | – | < 10 | – | Nc1nccn2c([C@@H]3CCCCN3C(=O)c3ccnc(Cl)n3)nc(-c3ccc(C(=O)Nc4cc(C(F)(F)F)ccn4)cc3)c12 [Example 115, (S)-4-(8-amino-3-(1-(2-chloropyrimidine-4-carbonyl)piperidin-2-yl)imidazo[1,5-a]pyrazin-1-yl)-N-(4-(trifluoromethyl)pyridin-2-yl)benzamide] |
| ≥ 1 | ≥ 1 | ≥ 1 | – | – | ≥ 1 | – | – | < 10 | – | CCc1cnc(NC(=O)c2ccc(-c3nc([C@@H]4CCCCN4C(=O)c4ccnc(Cl)n4)n4ccnc(N)c34)cc2)s1 [Example 118, (S)-4-(8-amino-3-(1-(2-chloropyrimidine-4-carbonyl)piperidin-2-yl)imidazo[1,5-a]pyrazin-1-yl)-N-(5-ethylthiazol-2-yl)benzamide] |
| ≥ 1 | ≥ 1 | ≥ 1 | – | – | ≥ 1 | – | – | < 10 | – | C=CC(=O)N1CCCC[C@H]1c1nc(-c2ccc(C(=O)Nc3cc(CCC)ccn3)cc2)c2c(N)nccn12 [Example 61, (S)-4-(3-(1-acryloylpiperidin-2-yl)-8-aminoimidazo[1,5-a]pyrazin-1-yl)-N-(4-propylpyridin-2-yl)benzamide] |
| ≥ 1 | – | ≥ 1 | – | – | ≥ 1 | 0.1 to 1 | <1 | < 10 | – | CCCc1ccnc(NC(=O)c2ccc(-c3nc([C@H](C)N(C)C(=O)/C=C/CN(C)C)n4ccnc(N)c34)cc2)c1 [Example 76, (S,E)-4-(8-amino-3-(1-(4-(dimethylamino)-N-methylbut-2-enamido)ethyl)imidazo[1,5-a]pyrazin-1-yl)-N-(4-propylpyridin-2-yl)benzamide] |
